# Earlier results, collected in EP3463364B1, “PYRAZINE DERIVATIVES FOR USE IN THE TREATMENT OF DISEASES ASSOCIATED WITH CELL CYCLE DYSREGULATION” (University of Patras, priority 2016, dated 2017).
# Biological target: T1, Geminin-Cdtl interaction (Homo sapiens, UniProt Q9H211)
# T1 sequence (Q9H211 1-546): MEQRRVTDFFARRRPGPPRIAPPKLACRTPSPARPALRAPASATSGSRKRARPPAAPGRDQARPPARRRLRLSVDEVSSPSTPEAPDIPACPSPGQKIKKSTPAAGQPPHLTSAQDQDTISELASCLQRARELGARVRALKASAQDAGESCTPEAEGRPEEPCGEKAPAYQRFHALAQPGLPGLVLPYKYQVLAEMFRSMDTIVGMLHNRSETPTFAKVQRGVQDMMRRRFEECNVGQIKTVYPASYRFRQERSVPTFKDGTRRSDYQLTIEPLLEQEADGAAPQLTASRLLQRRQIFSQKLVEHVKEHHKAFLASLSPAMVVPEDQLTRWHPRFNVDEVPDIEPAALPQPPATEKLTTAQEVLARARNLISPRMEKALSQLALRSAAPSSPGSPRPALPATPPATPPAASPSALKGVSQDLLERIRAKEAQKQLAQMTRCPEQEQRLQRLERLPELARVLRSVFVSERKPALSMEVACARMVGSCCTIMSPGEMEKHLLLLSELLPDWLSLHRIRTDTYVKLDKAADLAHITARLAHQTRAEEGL
# Settings: in vitro, through binding to the Cdtl licensing factor; literature; cited from earlier work
row,Compound,inhibition of the Geminin-Cdtl interaction
1,COC1=C(OC)C(=O)C(C/C=C(\C)CC/C=C(\C)CC/C=C(\C)CC/C=C(\C)CC/C=C(\C)CC/C=C(\C)CC/C=C(\C)CC/C=C(\C)CC/C=C(\C)CCC=C(C)C)=C(C)C1=O [coenzyme Q10],inhibit the interaction of the two proteins in vitro
2,"CCCCCCCC/C=C\CCCCCCCC(=O)O [oleic acid (C18:1), oleic acid]",inhibit the interaction of the two proteins in vitro
